Laboratory results taken from article PMC10586451, “Design, Synthesis, Pharmacological Activities, Structure–Activity Relationship, and In Silico Studies of Novel 5-Substituted-2-(morpholinoimino)-thiazolidin-4-ones” (ACS Omega, 2023).
Several values for one entry are separate records, joined by “and”; a condition that tells them apart may be missing. Equal entries are not always repeated. Where two headings read alike, the source gives them in different places.

How the values were obtained:
[1] = ABTS cation radical scavenging assay; settings: mean ± SEM of three parallel measurements
Experimental: (§1) DMSO solutions of four different concentrations (12.5, 25, 50, and 100 μM) of the synthesized compound 1–26 were prepared. DMSO was used as a control, while BHA and α-TOC were used as antioxidant standards.

[2] = DPPH radical scavenging assay; settings: mean ± SEM of three parallel measurements
Experimental: as §1

[3] = CUPRAC assay (Cu(II) reducing power); settings: concentration at 0.500 absorbance; mean ± SEM
Experimental: as §1

[4] = β-carotene-linoleic acid assay (antioxidant); settings: mean ± SEM of three parallel measurements
Experimental: as §1

tyrosinase = type: biochemical; settings: mean ± SEM of three parallel measurements
urease = urease (Canavalia ensiformis, UniProt P07374); assay: biochemical
[5] = target: T1, Acetylcholinesterase (AChE) (Electrophorus electricus, UniProt O42275); assay: biochemical; settings: for IC50: mean ± SEM of three parallel measurements
T1 construct: Acetylcholinesterase (AChE) from electric eel; from tissue; host or cells: electric eel
Experimental: (§2) Anticholinesterase activity of all was performed according to the Ellman’s method using a 96-well microplate reader. Acetylcholinesterase (AChE) from electric eel and butyrylcholinesterase (BChE) from horse serum were used. Acetylthiocholine iodide and butyrylthiocholine chloride were utilized as substrates. DTNB (5,50-dithiobis(2-nitrobenzoic) acid was used as a coloring agent to measure the anticholinesterase activity.[43] Measurements were obtained in triplicate.

[6] = target: T2, butyrylcholinesterase (BChE) (Equus caballus, UniProt P81908); assay: biochemical; settings: for IC50: mean ± SEM of three parallel measurements
T2 construct: butyrylcholinesterase (BChE) from horse serum; from tissue; host or cells: horse serum
Experimental: as §2

[7] = urease activity IC50, mean ± SEM of three parallel measurements
[8] = Selectivity index: IC50 for BChE/IC50 for AChE
[9] = Selectivity index: IC50 for AChE/IC50 for BChE

T1 sequence (O42275 24-633): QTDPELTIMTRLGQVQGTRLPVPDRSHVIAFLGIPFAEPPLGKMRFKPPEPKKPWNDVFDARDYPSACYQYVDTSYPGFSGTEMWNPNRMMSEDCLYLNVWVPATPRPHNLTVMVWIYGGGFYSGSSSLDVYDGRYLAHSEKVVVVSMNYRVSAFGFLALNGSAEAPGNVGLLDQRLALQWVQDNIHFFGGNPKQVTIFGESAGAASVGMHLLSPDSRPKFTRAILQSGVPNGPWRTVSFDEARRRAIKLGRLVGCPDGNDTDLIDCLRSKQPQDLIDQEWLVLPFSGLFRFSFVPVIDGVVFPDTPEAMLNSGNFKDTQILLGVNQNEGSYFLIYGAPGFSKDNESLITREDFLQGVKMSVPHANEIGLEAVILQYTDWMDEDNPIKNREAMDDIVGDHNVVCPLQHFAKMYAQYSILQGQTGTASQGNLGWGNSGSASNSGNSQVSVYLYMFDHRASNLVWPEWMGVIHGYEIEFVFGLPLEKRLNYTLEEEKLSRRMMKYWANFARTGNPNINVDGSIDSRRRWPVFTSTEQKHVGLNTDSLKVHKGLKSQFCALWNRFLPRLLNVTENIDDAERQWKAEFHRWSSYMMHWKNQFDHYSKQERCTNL
T2 sequence (P81908 whole entry): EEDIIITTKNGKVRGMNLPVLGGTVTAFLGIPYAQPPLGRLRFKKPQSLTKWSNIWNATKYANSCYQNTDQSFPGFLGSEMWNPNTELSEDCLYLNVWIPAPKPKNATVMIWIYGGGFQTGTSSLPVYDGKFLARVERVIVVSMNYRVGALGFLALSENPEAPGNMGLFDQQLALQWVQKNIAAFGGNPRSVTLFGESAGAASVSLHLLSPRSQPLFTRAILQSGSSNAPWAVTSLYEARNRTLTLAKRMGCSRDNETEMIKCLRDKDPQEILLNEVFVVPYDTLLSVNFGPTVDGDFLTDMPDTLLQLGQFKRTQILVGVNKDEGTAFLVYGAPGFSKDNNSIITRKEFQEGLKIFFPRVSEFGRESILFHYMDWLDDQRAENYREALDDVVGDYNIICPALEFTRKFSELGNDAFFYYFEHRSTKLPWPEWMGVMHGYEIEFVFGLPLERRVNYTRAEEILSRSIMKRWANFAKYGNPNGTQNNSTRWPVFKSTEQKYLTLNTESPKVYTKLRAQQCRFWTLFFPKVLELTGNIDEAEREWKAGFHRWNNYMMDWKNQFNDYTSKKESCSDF
Chain of urease (P07374 whole entry, looked up): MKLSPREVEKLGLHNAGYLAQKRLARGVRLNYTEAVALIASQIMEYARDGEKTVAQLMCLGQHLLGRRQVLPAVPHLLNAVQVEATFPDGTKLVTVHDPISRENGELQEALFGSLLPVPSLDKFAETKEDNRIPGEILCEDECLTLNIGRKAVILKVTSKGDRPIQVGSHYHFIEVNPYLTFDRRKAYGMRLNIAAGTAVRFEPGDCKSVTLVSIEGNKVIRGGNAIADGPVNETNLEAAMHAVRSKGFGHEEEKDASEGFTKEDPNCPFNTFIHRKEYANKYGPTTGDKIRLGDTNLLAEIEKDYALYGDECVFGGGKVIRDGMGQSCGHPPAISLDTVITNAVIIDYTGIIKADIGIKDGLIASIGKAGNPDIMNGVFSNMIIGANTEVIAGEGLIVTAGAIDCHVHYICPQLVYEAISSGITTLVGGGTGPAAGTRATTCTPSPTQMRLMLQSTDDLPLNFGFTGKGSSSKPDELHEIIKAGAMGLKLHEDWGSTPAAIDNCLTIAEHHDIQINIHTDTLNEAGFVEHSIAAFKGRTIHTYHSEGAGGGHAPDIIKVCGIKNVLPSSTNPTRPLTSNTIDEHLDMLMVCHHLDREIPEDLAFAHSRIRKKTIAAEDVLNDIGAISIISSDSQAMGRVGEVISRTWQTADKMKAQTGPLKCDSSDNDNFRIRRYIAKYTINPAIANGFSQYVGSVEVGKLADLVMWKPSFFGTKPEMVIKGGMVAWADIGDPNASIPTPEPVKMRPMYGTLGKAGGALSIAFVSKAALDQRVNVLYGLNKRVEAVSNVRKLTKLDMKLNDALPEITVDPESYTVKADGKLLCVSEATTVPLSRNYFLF

SMILES | IC50 [1] | IC50 [2] | CUPRAC assay A0.5 [3] | IC50 [4] | IC50 (tyrosinase) | IC50 (urease; [7]) | SI for AChE [5, 8] | IC50 [5] | SI for BChE [6, 9] | IC50 [6] | SI for AChE [5] | SI for BChE [6] | IC50 (urease; mean ± SEM of three parallel measurements, read-out: urease activity IC50)
Cc1cc(C(C)(C)C)c(O)c(C(C)(C)C)c1 [BHT, butylated hydroxytoluene, reference compound] | 2.91 ± 0.55 µM | 55 ± 0.99 µM | 3.80 ± 0.02 µM | 2.34 ± 0.09 µM | – | – | – | – | – | – | – | – | –
S=C(Nc1ccccc1)NN1CCOCC1 [Compound 1, 1-Morpholino-3-phenylthiyourea] | 48.9 ± 0.78 µM | 253.4 ± 0.6 µM | 45.18 ± 0.01 µM | 79.37 ± 0.38 µM | 35130 ± 70 µM | 82.54 ± 0.29 µM | 0.91 | 130 ± 0.18 µM | 1.10 | 118.5 ± 0.34 µM | – | – | –
O=C1CSC(=NN2CCOCC2)N1c1ccccc1 [Compound 2, 2-(Morpholinoimino)-3-phenylthiazolidin-4-one] | 31.66 ± 0.13 µM | 101.9 ± 0.61 µM | 36.35 ± 0.00 µM | 40.43 ± 0.11 µM | 30200 ± 610 µM | 65.4 ± 0.67 µM | 1.50 | 44.3 ± 0.75 µM | 0.67 | 66.44 ± 0.41 µM | – | – | –
O=C1C(=Cc2ccccc2)SC(=NN2CCOCC2)N1c1ccccc1 [Compound 3, 5-(Benzylidene)-2-(morpholinoimino)-3-phenylthiazolidine-4-one] | 31.59 ± 0.04 µM | 52.13 ± 0.29 µM | 35.89 ± 0.01 µM | 39.8 ± 0.67 µM | 29400 ± 490 µM | 56.8 ± 0.15 µM | 1.42 | 34.2 ± 0.63 µM | 0.70 | 48.72 ± 0.18 µM | – | – | –
O=C1C(=Cc2ccc(Br)cc2)SC(=NN2CCOCC2)N1c1ccccc1 [Compound 4, 5-(4-Bromobenzylidene)-2-(morpholinoimino)-3-phenylthiazolidine-4-one] | 23.7 ± 0.66 µM | 40.2 ± 0.77 µM | 21.18 ± 0.00 µM | 34.7 ± 0.15 µM | 28400 ± 900 µM | 56.11 ± 0.22 µM | 1.43 | 27.7 ± 0.51 µM | 0.70 | 39.6 ± 0.74 µM | – | – | –
O=C1C(=Cc2ccc(O)cc2)SC(=NN2CCOCC2)N1c1ccccc1 [Compound 5, 5-(4-Hydroxybenzaldehyde)-2-(morpholinoimino)-3 phenylthiazolidine-4-one] | 28.74 ± 0.19 µM | 42.8 ± 0.53 µM | 24.48 ± 0.02 µM | 36.2 ± 0.46 µM | 28000 ± 350 µM | 55.6 ± 0.81 µM | 1.38 | 27 ± 0.48 µM | 0.73 | 37.1 ± 0.57 µM | – | – | –
COc1ccc(C=C2SC(=NN3CCOCC3)N(c3ccccc3)C2=O)cc1 [Compound 6, 5-(4-(Methoxy)benzylidene)-2-(morpholinoimino)-3-phenylthiazolidin-4-one] | 30.6 ± 0.05 µM | 43.46 ± 0.14 µM | 32.68 ± 0.01 µM | 37.07 ± 0.22 µM | 27990 ± 170 µM | 50.78 ± 0.08 µM | 1.27 | 29 ± 0.64 µM | 0.79 | 36.81 ± 0.19 µM | – | – | –
COc1ccc(C=C2SC(=NN3CCOCC3)N(c3ccccc3)C2=O)cc1OC [Compound 7, 5-(3,4-Dimethoxy-benzylidene)-2-(morpholinoimino)-3-phenylthiazolidin-4-one] | 31.55 ± 0.22 µM | 43.91 ± 0.29 µM | 34.50 ± 0.01 µM | 38.24 ± 0.13 µM | 27720 ± 240 µM | 54.3 ± 0.62 µM | 1.34 | 30.4 ± 0.47 µM | 0.75 | 40.88 ± 0.16 µM | – | – | –
COc1cc(C=C2SC(=NN3CCOCC3)N(c3ccccc3)C2=O)cc(OC)c1OC [Compound 8, 5-(3,4,5-(Trimethoxy)benzylidene)-2-(morpholinoimino)-3-phenylthiazolidin-4-one] | 32.95 ± 0.28 µM | 44.06 ± 0.21 µM | 35.13 ± 0.03 µM | 36.5 ± 0.39 µM | 25700 ± 390 µM | 53.4 ± 0.64 µM | 1.41 | 33.61 ± 0.33 µM | 0.71 | 47.3 ± 0.77 µM | – | – | –
O=C1C(=Cc2ccc([N+](=O)[O-])cc2)SC(=NN2CCOCC2)N1c1ccccc1 [Compound 9, 5-(4-Nitrobenzylidene)-2-(morpholinoimino)-3-phenylthiazolidin-4-one] | 25.2 ± 0.37 µM | 32.3 ± 0.55 µM | 21.87 ± 0.01 µM | 30.44 ± 0.17 µM | 25420 ± 120 µM | 51.7 ± 0.12 µM | 1.35 | 29.8 ± 0.81 µM | 0.74 | 40.19 ± 0.19 µM | – | – | –
CN(C)c1ccc(C=C2SC(=NN3CCOCC3)N(c3ccccc3)C2=O)cc1 [Compound 10] | 30.1 ± 0.69 µM | 37.43 ± 0.29 µM | 28.65 ± 0.00 µM | 34.23 ± 0.2 µM | 25000 ± 670 µM | 49.3 ± 0.55 µM | 1.42 | 26.48 ± 0.25 µM | 0.71 | 37.53 ± 0.2 µM | – | – | –
O=C1C(=Cc2ccc(N(CCCl)CCCl)cc2)SC(=NN2CCOCC2)N1c1ccccc1 [Compound 11] | 23.2 ± 0.34 µM | 24.6 ± 0.8 µM | 11.82 ± 0.00 µM | 11.9 ± 1.3 µM | 23400 ± 500 µM | 31.5 ± 0.49 µM | – | 21.45 ± 0.06 µM | – | 32.8 ± 0.48 µM | 1.53 | 0.66 | –
O=C1C(=Cc2ccc(N3CCCC3)cc2)SC(=NN2CCOCC2)N1c1ccccc1 [Compound 12, 2-(Morpholinoimino)-3-phenyl-5-(4-(pyrrolidin-1-yl)benzylidene)thiazolidine-4-one] | 24.7 ± 0.25 µM | 26.1 ± 0.44 µM | 20.77 ± 0.03 µM | 16.2 ± 0.66 µM | 24800 ± 770 µM | 24.2 µM and 23.6 µM | 1.40 | 17.4 ± 0.22 µM | 0.71 | 24.4 ± 0.51 µM | – | – | –
O=C1C(=Cc2ccc(N3CCCCC3)cc2)SC(=NN2CCOCC2)N1c1ccccc1 [Compound 13, 2-(Morpholinoimino)-3-phenyl-5-(4-(piperidin-1-yl)benzylidene)thiazolidine-4-one] | 27.16 ± 0.06 µM | 29 ± 0.29 µM | 23.66 ± 0.02 µM | 20.2 ± 0.14 µM | 26200 ± 1110 µM | 30.3 ± 0.95 µM | 1.61 | 20 ± 0.37 µM | 0.62 | 32.21 ± 0.11 µM | – | – | –
O=C1C(=Cc2ccc(N3CCOCC3)cc2)SC(=NN2CCOCC2)N1c1ccccc1 [Compound 14, 2-(Morfolinoimino)-3-phenyl-5-(4-(morpholin-1-yl)benzylidene)thiazolidine-4-one] | 30.3 ± 0.36 µM | 33.86 ± 0.11 µM | 27.43 ± 0.00 µM | 26.31 ± 0.03 µM | 8100 ± 220 µM | 26.7 ± 0.52 µM | 1.34 | 19.2 ± 0.61 µM | 0.75 | 25.7 ± 1.05 µM | – | – | –
NC(N)=S [thiourea, reference compound] | – | – | – | – | – | – | – | – | – | – | – | – | 24.2 ± 0.3 µM
Cc1c(C)c2c(c(C)c1O)CC[C@@](C)(CCC[C@H](C)CCC[C@H](C)CCCC(C)C)O2 [α-TOC, reference compound] | 4.87 ± 0.45 µM | 12.26 ± 0.07 µM | 40.48 ± 0.02 µM | 4.5 ± 0.09 µM | – | – | – | – | – | – | – | – | –
